Results taken from PubChem BioAssay AID248 (DTP/NCI, 2004).
Values joined by “and” are separate entries in the source; they are usually repeats but may differ in a detail not shown here. Identical values can stand only once. Toxic doses and inconclusive results are not listed. Rule as the data show it: active = T/C of 150% or more; inactive = T/C below 125%.

Tested on: L1210 leukemia ip in BDF1 mice, survival T/C
Assay: NCI In Vivo Anticancer Drug Screen. Data for tumor model L1210 Leukemia (intraperitoneal) in B6D2F1 (BDF1) mice
Conditions: endpoint: mean survival time, higher = longer survival
Procedure, shortened: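 In this screen, tumor-bearing mice given compound are compared to those given vehicle, and their survival values are reported as a treated-to-control quotient.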

[1] = dose: 100.0 mg/kg/injection, schedule: Q01DX001 (ip), vehicle: saline
[2] = dose: 200.0 mg/kg/injection, schedule: Q01DX001 (ip), vehicle: saline
[3] = dose: 400.0 mg/kg/injection, schedule: Q01DX001 (ip), vehicle: saline
[4] = dose: 100.0 mg/kg/injection, schedule: Q01DX009 (ip), vehicle: saline
[5] = dose: 200.0 mg/kg/injection, schedule: Q01DX009 (ip), vehicle: saline
[6] = dose: 100.0 mg/kg/injection, schedule: Q04DX002 (ip), vehicle: saline
[7] = dose: 200.0 mg/kg/injection, schedule: Q04DX002 (ip), vehicle: saline
[8] = dose: 400.0 mg/kg/injection, schedule: Q04DX002 (ip), vehicle: saline
[9] = dose: 100.0 mg/kg/injection, schedule: Q01DX001 (ip), vehicle: Klucel (hydroxypropylcellulose) (HPC)
[10] = dose: 200.0 mg/kg/injection, schedule: Q01DX001 (ip), vehicle: Klucel (hydroxypropylcellulose) (HPC)
[11] = dose: 400.0 mg/kg/injection, schedule: Q01DX001 (ip), vehicle: Klucel (hydroxypropylcellulose) (HPC)
[12] = dose: 100.0 mg/kg/injection, schedule: Q04DX003 (ip), vehicle: saline with Tween-80
[13] = dose: 200.0 mg/kg/injection, schedule: Q04DX003 (ip), vehicle: saline with Tween-80
[14] = dose: 100.0 mg/kg/injection, schedule: Q01DX001 (ip), vehicle: acetone
[15] = dose: 100.0 mg/kg/injection, schedule: Q04DX003 (ip), vehicle: Klucel (hydroxypropylcellulose) (HPC)
[16] = dose: 200.0 mg/kg/injection, schedule: Q04DX003 (ip), vehicle: Klucel (hydroxypropylcellulose) (HPC)
[17] = dose: 100.0 mg/kg/injection, schedule: Q01DX009 (ip), vehicle: Klucel (hydroxypropylcellulose) (HPC)
[18] = dose: 200.0 mg/kg/injection, schedule: Q01DX009 (ip), vehicle: Klucel (hydroxypropylcellulose) (HPC)
[19] = dose: 400.0 mg/kg/injection, schedule: Q04DX003 (ip), vehicle: Klucel (hydroxypropylcellulose) (HPC)
[20] = dose: 100.0 mg/kg/injection, schedule: Q04DX002 (ip), vehicle: Klucel (hydroxypropylcellulose) (HPC)
[21] = dose: 200.0 mg/kg/injection, schedule: Q04DX002 (ip), vehicle: Klucel (hydroxypropylcellulose) (HPC)
[22] = dose: 400.0 mg/kg/injection, schedule: Q04DX002 (ip), vehicle: Klucel (hydroxypropylcellulose) (HPC)
[23] = dose: 100.0 mg/kg/injection, schedule: Q01DX001 (ip), vehicle: carboxymethylcellulose (CMC)
[24] = dose: 200.0 mg/kg/injection, schedule: Q01DX001 (ip), vehicle: carboxymethylcellulose (CMC)
[25] = dose: 100.0 mg/kg/injection, schedule: Q04DX003 (ip), vehicle: saline
[26] = dose: 200.0 mg/kg/injection, schedule: Q04DX003 (ip), vehicle: saline

Measured: T/C

CC1(C)S[C@@H]2[C@H](NC(=O)Cc3ccc([N+](=O)[O-])cc3)CN2[C@H]1N=C=O
inactive: [1] 93 % of control | [2] 91 % of control | [3] 98 % of control

COC(=O)C([CH2][Sn]([c]1ccccc1)([c]1ccccc1)[c]1ccccc1)NC(=O)Cc1ccccc1 (configuration not stated)
inactive: dose: 50.0 mg/kg/injection, schedule: Q01DX009 (ip), vehicle: saline 96 % of control | [4] 100 % of control | [5] 100 % of control

CCCC(=O)c1cc(C)sc1C
inactive: dose: 100.0 mg/kg/injection, schedule: Q01DX009 (sc), vehicle: olive oil, sesame oil, peanut oil 90 % of control | dose: 100.0 mg/kg/injection, schedule: Q04DX003 (sc), vehicle: olive oil, sesame oil, peanut oil 100 % of control | dose: 200.0 mg/kg/injection, schedule: Q01DX009 (sc), vehicle: olive oil, sesame oil, peanut oil 87 % of control | dose: 200.0 mg/kg/injection, schedule: Q04DX003 (sc), vehicle: olive oil, sesame oil, peanut oil 93 % of control | dose: 400.0 mg/kg/injection, schedule: Q01DX009 (sc), vehicle: olive oil, sesame oil, peanut oil 99 % of control | dose: 400.0 mg/kg/injection, schedule: Q04DX003 (sc), vehicle: olive oil, sesame oil, peanut oil 100 % of control

NNc1cc(S(=O)(=O)O)cc(C(=O)O)c1O
inactive: [1] 107 % of control | [4] 100 % of control and 103 % of control | [6] 97 % of control and 90 % of control | [2] 102 % of control | [5] 110 % of control and 89 % of control | [7] 100 % of control and 90 % of control | [3] 102 % of control | dose: 400.0 mg/kg/injection, schedule: Q01DX009 (ip), vehicle: saline 87 % of control | [8] 108 % of control and 90 % of control

C/C(Cc1cc(C)nc(N)n1)=N\Nc1ccccc1
inactive: dose: 6.25 mg/kg/injection, schedule: Q01DX009 (ip), vehicle: Klucel (hydroxypropylcellulose) (HPC) 93 % of control | dose: 12.5 mg/kg/injection, schedule: Q01DX009 (ip), vehicle: Klucel (hydroxypropylcellulose) (HPC) 115 % of control | dose: 25.0 mg/kg/injection, schedule: Q01DX009 (ip), vehicle: Klucel (hydroxypropylcellulose) (HPC) 91 % of control

Cc1cc(C)n(/N=C/c2ccccn2)c(=O)c1C#N
inactive: dose: 75.0 mg/kg/injection, schedule: Q04DX003 (ip), vehicle: Klucel (hydroxypropylcellulose) (HPC) 94 % of control | [9] 97 % of control | dose: 150.0 mg/kg/injection, schedule: Q04DX003 (ip), vehicle: Klucel (hydroxypropylcellulose) (HPC) 97 % of control | [10] 97 % of control | dose: 300.0 mg/kg/injection, schedule: Q04DX003 (ip), vehicle: Klucel (hydroxypropylcellulose) (HPC) 100 % of control | [11] 102 % of control

CCCCC(CCCC)NC(C)CO (configuration not stated)
inactive: dose: 75.0 mg/kg/injection, schedule: Q01DX001 (ip), vehicle: saline 102 % of control

Cc1ccc(Nc2ncnc3nc[nH]c23)cc1CN(CCO)CCO
inactive: [1] 101 % of control | [2] 101 % of control | [3] 95 % of control

C[CH2][Ge]1([CH2]C)[CH2]CC2(C[CH2]1)NC(=O)N(CCCN(C)C)C2O (configuration not stated)
inactive: [6] 96 % of control | [7] 100 % of control | [8] 88 % of control

CSc1ncc(Br)c(C(=O)O)n1
inactive: dose: 100.0 mg/kg/injection, schedule: Q01DX009 (ip), vehicle: saline with Tween-80 93 % of control | dose: 200.0 mg/kg/injection, schedule: Q01DX009 (ip), vehicle: saline with Tween-80 93 % of control | dose: 400.0 mg/kg/injection, schedule: Q01DX009 (ip), vehicle: saline with Tween-80 94 % of control

O=C1NC(=O)C2C3OC(C(Br)C3Br)C12 (configuration not stated)
inactive: dose: 100.0 mg/kg/injection, schedule: Q01DX009 (ip), vehicle: acetone 86 % of control | [12] 93 % of control | dose: 200.0 mg/kg/injection, schedule: Q01DX009 (ip), vehicle: acetone 86 % of control | [13] 108 % of control | dose: 400.0 mg/kg/injection, schedule: Q01DX009 (ip), vehicle: acetone 88 % of control | dose: 400.0 mg/kg/injection, schedule: Q04DX003 (ip), vehicle: saline with Tween-80 95 % of control

CCCN(CCC)C(=O)CCC(C)O (configuration not stated)
inactive: [14] 113 % of control | dose: 200.0 mg/kg/injection, schedule: Q01DX001 (ip), vehicle: acetone 101 % of control | dose: 400.0 mg/kg/injection, schedule: Q01DX001 (ip), vehicle: acetone 103 % of control

Cc1cc2c(cc1C)C1(c3ccc(Cl)cc3)OC2(c2ccc(Cl)cc2)C2C(=O)OC(=O)C21 (configuration not stated)
inactive: [9] 94 % of control | [10] 92 % of control | [11] 97 % of control

Cc1ccc(S)c(C)c1
inactive: [15] 93 % of control | [16] 95 % of control

OCCCNc1nc2ccc(Br)cc2c2ccccc12
inactive: [17] 100 % of control | [15] 108 % of control | [18] 89 % of control | [16] 102 % of control | dose: 400.0 mg/kg/injection, schedule: Q01DX009 (ip), vehicle: Klucel (hydroxypropylcellulose) (HPC) 95 % of control | [19] 102 % of control

CC(Nc1ccccc1)(C(N)=O)c1ccccc1 (configuration not stated)
inactive: dose: 100.0 mg/kg/injection, schedule: Q01DX001 (ip), vehicle: saline sonified 96 % of control | dose: 200.0 mg/kg/injection, schedule: Q01DX001 (ip), vehicle: saline sonified 100 % of control | dose: 400.0 mg/kg/injection, schedule: Q01DX001 (ip), vehicle: saline sonified 97 % of control

Cc1c(O)cc2c(c1O)C(=O)CC(c1ccc(O)cc1)O2 (configuration not stated)
inactive: [20] 91 % of control | [21] 87 % of control | [22] 108 % of control

O=[N+]([O-])c1cccn2cnnc12
inactive: [14] 92 % of control

C1CC[C@@H]2NCCC[C@H]2C1
inactive: [23] 103 % of control | [24] 92 % of control

CN(C)Cc1c(CC(O)(c2ccccc2)c2ccccc2)ccc2ccccc12
inactive: dose: 50.0 mg/kg/injection, schedule: Q01DX001 (ip), vehicle: carboxymethylcellulose (CMC) 96 % of control | [23] 100 % of control | [24] 96 % of control | dose: 400.0 mg/kg/injection, schedule: Q01DX001 (ip), vehicle: carboxymethylcellulose (CMC) 105 % of control

O=C(Nc1ccccn1)Nc1ccccn1
inactive: [17] 104 % of control | [15] 98 % of control | [18] 104 % of control | [16] 87 % of control | [19] 106 % of control

O=[N+]([O-])c1ccccc1Sc1ccc2c3c(cccc13)CN(CCCO)C2
inactive: [20] 90 % of control | [21] 108 % of control | [22] 104 % of control

CN(C)/N=C/c1ccccn1
inactive: [25] 106 % of control | [26] 109 % of control

CCOP(=O)(OCC)Oc1cc(C)c(C#N)c(C)c1
inactive: dose: 5.0 mg/kg/injection, schedule: Q01DX001 (ip), vehicle: saline 108 % of control | dose: 10.0 mg/kg/injection, schedule: Q01DX001 (ip), vehicle: saline 108 % of control | dose: 20.0 mg/kg/injection, schedule: Q01DX001 (ip), vehicle: saline 100 % of control | dose: 40.0 mg/kg/injection, schedule: Q01DX001 (ip), vehicle: saline 103 % of control

COc1ccccc1C(Cc1ccc(N2C(N)=NC(N)=NC2(C)C)cc1)C(=O)Nc1ccc(S(=O)(=O)F)cc1 (configuration not stated)
inactive: [9] 101 % of control | [10] 101 % of control | [11] 99 % of control

CC1=CC(=O)C(C)(C(Cl)Cl)C=C1 (configuration not stated)
inactive: [12] 95 % of control | [13] 97 % of control

CSc1ccc(NC(=O)Nc2ccccc2C(N)=O)cc1
inactive: [4] 108 % of control | [25] 92 % of control | [5] 114 % of control | [26] 98 % of control | dose: 400.0 mg/kg/injection, schedule: Q04DX003 (ip), vehicle: saline 95 % of control
